Data as given in patent publication US20260132158A1, “PHENYL OXY AMIDE KINASE INHIBITORS” (THE TRANSLATIONAL GENOMICS RESEARCH INSTITUTE, priority 2022, published 2026).

Molecular target: T1, RON Kinase (Homo sapiens, UniProt Q04912)
T1 construct: purchased Promega V8071
Test: RON Kinase ADP Glo Assay
Assay type: biochemical
Details: ratio cMET IC50 / RON IC50
Procedure: RON Kinase ADP Glo Assay • Assay Buffer: 40 mM Tris-HCl, pH7.5, 20 mM MgCl2, 0.1 mg/mL BSA • RON Kinase+ADP-Glo™ Assay (Promega #: V8071) • Substrate: […] Axltide • Enzyme: 100 ng/μL RON Kinase • ATP: 10 mM • ADP-Glo™ Reagent • Kinase Detection Reagent • 384-well white assay plates Kinase assay was done by following instructions from the kit. Briefly, a ten-point serial dilution of compound was prepared at 5× in assay buffer with the final assay concentrations starting at 300 nM, 100 nM, 30 nM, 10 nM . . . 0 nM. Enzyme, substrate, and ATP were used at 25 ng, 2000 ng, and 25 µM, respectively. The assay plate was set up by mixing the components in a total reaction volume of 10 μL per well. The plate was centrifuged gently for 10 seconds and incubated at room temperature (RT) for 60 minutes in the dark. The ADP-Glo Reagent and kinase detection reagent were added and incubated as recommended. The reaction was quantified by measuring luminescence on the Perkin Elmer Envision plate reader.

T1 sequence (Q04912 25-1400): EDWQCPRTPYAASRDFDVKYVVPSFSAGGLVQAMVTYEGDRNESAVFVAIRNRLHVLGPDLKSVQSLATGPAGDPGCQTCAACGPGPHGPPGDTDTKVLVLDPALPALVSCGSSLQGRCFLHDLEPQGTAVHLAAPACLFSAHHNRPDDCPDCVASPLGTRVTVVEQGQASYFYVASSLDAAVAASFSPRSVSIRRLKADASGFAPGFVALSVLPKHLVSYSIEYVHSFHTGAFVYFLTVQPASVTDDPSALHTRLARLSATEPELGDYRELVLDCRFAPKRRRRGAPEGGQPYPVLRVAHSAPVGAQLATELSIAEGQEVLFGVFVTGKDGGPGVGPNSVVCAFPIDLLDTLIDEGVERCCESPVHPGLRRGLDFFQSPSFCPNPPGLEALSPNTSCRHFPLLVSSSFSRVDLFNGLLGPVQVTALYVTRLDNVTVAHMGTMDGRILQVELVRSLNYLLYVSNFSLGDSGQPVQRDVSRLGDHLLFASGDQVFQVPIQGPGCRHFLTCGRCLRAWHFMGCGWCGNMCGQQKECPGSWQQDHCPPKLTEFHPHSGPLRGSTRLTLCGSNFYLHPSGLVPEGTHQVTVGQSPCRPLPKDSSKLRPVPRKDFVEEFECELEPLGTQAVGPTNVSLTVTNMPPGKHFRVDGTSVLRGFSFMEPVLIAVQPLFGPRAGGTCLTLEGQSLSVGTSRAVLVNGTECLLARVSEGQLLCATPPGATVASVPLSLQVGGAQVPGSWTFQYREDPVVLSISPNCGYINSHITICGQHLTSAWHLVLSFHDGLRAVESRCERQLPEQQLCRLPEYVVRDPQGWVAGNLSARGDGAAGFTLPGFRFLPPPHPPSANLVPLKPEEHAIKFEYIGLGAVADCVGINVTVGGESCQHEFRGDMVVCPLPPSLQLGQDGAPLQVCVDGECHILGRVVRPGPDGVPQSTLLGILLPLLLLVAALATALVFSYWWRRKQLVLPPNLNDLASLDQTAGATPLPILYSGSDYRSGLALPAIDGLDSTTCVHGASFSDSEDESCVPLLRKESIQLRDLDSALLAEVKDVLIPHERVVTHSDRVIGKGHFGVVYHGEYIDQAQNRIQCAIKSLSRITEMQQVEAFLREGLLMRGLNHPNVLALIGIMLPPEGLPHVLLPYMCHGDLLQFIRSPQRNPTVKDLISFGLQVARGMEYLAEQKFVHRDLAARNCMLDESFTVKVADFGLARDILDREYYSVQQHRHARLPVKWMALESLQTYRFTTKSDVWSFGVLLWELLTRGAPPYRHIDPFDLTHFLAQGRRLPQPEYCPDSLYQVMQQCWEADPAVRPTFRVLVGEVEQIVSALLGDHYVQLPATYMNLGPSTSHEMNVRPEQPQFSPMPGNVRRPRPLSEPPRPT

`C=CC(=O)NC1CCCC(Nc2nccc(Oc3ccc(NC(=O)c4cnn(-c5ccc(F)cc5)c4C(F)(F)F)cc3F)n2)C1` (single isomer, unassigned) [44 (peak 1), N-(4-((2-((3-acrylamidocyclohexyl)amino)pyrimidin-4-yl)oxy)-3-fluorophenyl)-1-(4-fluorophenyl)-5-(trifluoromethyl)-1H-pyrazole-4-carboxamide] was tested. Which “Fold Selectivity (cMET/RON)” value did it give?
The value was “+++ (represents a value greater than 3 up to 50)”.

`C=CC(=O)NC1CCCC(Nc2nccc(Oc3ccc(NC(=O)c4cnn(-c5ccc(F)cc5)c4C(F)(F)F)cc3F)n2)C1` (single isomer, unassigned) [44 (peak 2), N-(4-((2-((3-acrylamidocyclohexyl)amino)pyrimidin-4-yl)oxy)-3-fluorophenyl)-1-(4-fluorophenyl)-5-(trifluoromethyl)-1H-pyrazole-4-carboxamide] was tested. Which “Fold Selectivity (cMET/RON)” value did it give?
The value was “+++ (represents a value greater than 3 up to 50)”.

Which “Fold Selectivity (cMET/RON)” value does the source give for `O=C(Nc1ccc(Oc2ccnc(Nc3cccc(N4CCOCC4)c3)n2)c(F)c1)c1cnn(-c2ccc(F)cc2)c1C(F)(F)F` [Compound 1, N-(3-fluoro-4-((2-((3-morpholinophenyl)amino)pyrimidin-4-yl)oxy)phenyl)-1-(4-fluorophenyl)-5-(trifluoromethyl)-1H-pyrazole-4-carboxamide] here?
Its value is “+++ (represents a value greater than 3 up to 50)”.

How did the “Fold Selectivity (cMET/RON)” value turn out when `Cn1cnc(-c2cc3ncnc(Oc4ccc(NC(=O)c5cnn(-c6ccc(F)cc6)c5C(F)(F)F)cc4F)c3s2)c1` [Compound 2, N-(3-fluoro-4-((6-(1-methyl-1H-imidazol-4-yl)thieno[3,2-d]pyrimidin-4-yl)oxy)phenyl)-1-(4-fluorophenyl)-5-(trifluoromethyl)-1H-pyrazole-4-carboxamide] was run?
Its value is “+++ (represents a value greater than 3 up to 50)”.

With `O=C(Nc1ccc(Oc2ccnc3cc(Br)nn23)c(F)c1)c1cnn(-c2ccc(F)cc2)c1C(F)(F)F` [Compound 4, N-(4-((2-bromopyrazolo[1,5-a]pyrimidin-7-yl)oxy)-3-fluorophenyl)-1-(4-fluorophenyl)-5-(trifluoromethyl)-1H-pyrazole-4-carboxamide] as the molecule, how does the “Fold Selectivity (cMET/RON)” value read?
The value was “++ (represents a value greater than 0.5 up to 3)”.

With `Cn1cc(-c2c(Oc3ccc(NC(=O)c4cnn(-c5ccc(F)cc5)c4C(F)(F)F)cc3F)ccnc2N)cn1` [Compound 5, N-(4-((2-amino-3-(1-methyl-1H-pyrazol-4-yl)pyridin-4-yl)oxy)-3-fluorophenyl)-1-(4-fluorophenyl)-5-(trifluoromethyl)-1H-pyrazole-4-carboxamide] as the molecule, how does the “Fold Selectivity (cMET/RON)” value read?
Its value is “+++ (represents a value greater than 3 up to 50)”.

`Cn1cc(-c2c(Oc3ccc(NC(=O)c4nnn(-c5ccc(F)cc5)c4C(F)(F)F)cc3F)ccnc2N)cn1` [Compound 6, N-(4-((2-amino-3-(1-methyl-1H-pyrazol-4-yl)pyridin-4-yl)oxy)-3-fluorophenyl)-1-(4-fluorophenyl)-5-(trifluoromethyl)-1H-1,2,3-triazole-4-carboxamide] was tested. Which “Fold Selectivity (cMET/RON)” value did it give?
Its value is “++ (represents a value greater than 0.5 up to 3)”.

Which “Fold Selectivity (cMET/RON)” value does the source give for `Cn1cc(-c2cc3nccc(Oc4ccc(NC(=O)c5cnn(-c6ccc(F)cc6)c5C(F)(F)F)cc4F)n3n2)cn1` [Compound 7, N-(3-fluoro-4-((2-(1-methyl-1H-pyrazol-4-yl)pyrazolo[1,5-a]pyrimidin-7-yl)oxy)phenyl)-1-(4-fluorophenyl)-5-(trifluoromethyl)-1H-pyrazole-4-carboxamide] here?
The value was “+++ (represents a value greater than 3 up to 50)”.

How did the “Fold Selectivity (cMET/RON)” value turn out when `Cn1cnc(-c2cc3nccc(Oc4ccc(NC(=O)c5cnn(-c6ccc(F)cc6)c5C(F)(F)F)cc4F)n3n2)c1` [Compound 8, N-(3-fluoro-4-((2-(1-methyl-1H-imidazol-4-yl)pyrazolo[1,5-a]pyrimidin-7-yl)oxy)phenyl)-1-(4-fluorophenyl)-5-(trifluoromethyl)-1H-pyrazole-4-carboxamide] was run?
The value was “+++ (represents a value greater than 3 up to 50)”.

Which “Fold Selectivity (cMET/RON)” value does the source give for `Cn1cc(-c2c(Oc3ccc(NC(=O)c4ccnc(-c5ccc(F)cc5)c4C(F)(F)F)cc3F)ccnc2N)cn1` [Compound 12, N-(4-((2-amino-3-(1-methyl-1H-pyrazol-4-yl)pyridin-4-yl)oxy)-3-fluorophenyl)-2-(4-fluorophenyl)-3-(trifluoromethyl)isonicotinamide] here?
Its value is “+++ (represents a value greater than 3 up to 50)”.

For `CP(C)(=O)c1c(Oc2ccc(NC(=O)c3cnn(-c4ccc(F)cc4)c3C(F)(F)F)cc2F)ccnc1N` [Compound 17, N-(4-((2-amino-3-(dimethylphosphoryl)pyridin-4-yl)oxy)-3-fluorophenyl)-1-(4-fluorophenyl)-5-(trifluoromethyl)-1H-pyrazole-4-carboxamide], which “Fold Selectivity (cMET/RON)” value is on record?
The value was “+++ (represents a value greater than 3 up to 50)”.

For `Cn1cc(-c2c(Oc3ccc(NC(=O)c4cc(-c5ccc(F)cc5)no4)cc3F)ccnc2N)cn1` [Compound 21, N-(4-((2-amino-3-(1-methyl-1H-pyrazol-4-yl)pyridin-4-yl)oxy)-3-fluorophenyl)-3-(4-fluorophenyl)isoxazole-5-carboxamide], which “Fold Selectivity (cMET/RON)” value is on record?
The value was “+ (represents a value below 0.5)”.

How did the “Fold Selectivity (cMET/RON)” value turn out when `COc1cc(Nc2nccc(Oc3ccc(NC(=O)c4cnn(-c5ccc(F)cc5)c4C(F)(F)F)cc3F)n2)cc(OC)c1` [Compound 24, N-(4-((2-((3,5-dimethoxyphenyl)amino)pyrimidin-4-yl)oxy)-3-fluorophenyl)-1-(4-fluorophenyl)-5-(trifluoromethyl)-1H-pyrazole-4-carboxamide] was run?
Its value is “+++ (represents a value greater than 3 up to 50)”.

For `CP(C)(=O)c1cccc(Nc2nccc(Oc3ccc(NC(=O)c4cnn(-c5ccc(F)cc5)c4C(F)(F)F)cc3F)n2)c1` [Compound 26, N-(4-((2-((3-(dimethylphosphoryl)phenyl)amino)pyrimidin-4-yl)oxy)-3-fluorophenyl)-1-(4-fluorophenyl)-5-(trifluoromethyl)-1H-pyrazole-4-carboxamide], which “Fold Selectivity (cMET/RON)” value is on record?
Its value is “+++ (represents a value greater than 3 up to 50)”.

For `CC(C)Oc1cccc(Nc2nccc(Oc3ccc(NC(=O)c4cnn(-c5ccc(F)cc5)c4C(F)(F)F)cc3F)n2)c1` [Compound 35, N-(3-fluoro-4-((2-((3-isopropoxyphenyl)amino)pyrimidin-4-yl)oxy)phenyl)-1-(4-fluorophenyl)-5-(trifluoromethyl)-1H-pyrazole-4-carboxamide], which “Fold Selectivity (cMET/RON)” value is on record?
Its value is “+++ (represents a value greater than 3 up to 50)”.

How did the “Fold Selectivity (cMET/RON)” value turn out when `C=CC(=O)N1CCCC(c2cccc(Nc3nccc(Oc4ccc(NC(=O)c5cnn(-c6ccc(F)cc6)c5C(F)(F)F)cc4F)n3)c2)C1` (stereo not shown) [Compound 38, N-(4-((2-((3-(1-acryloylpiperidin-3-yl)phenyl)amino)pyrimidin-4-yl)oxy)-3-fluorophenyl)-1-(4-fluorophenyl)-5-(trifluoromethyl)-1H-pyrazole-4-carboxamide] was run?
The value was “+++ (represents a value greater than 3 up to 50)”.

`C=CC(=O)N1CCN(CCc2cccc(Nc3nccc(Oc4ccc(NC(=O)c5cnn(-c6ccc(F)cc6)c5C(F)(F)F)cc4F)n3)c2)CC1` [Compound 43, N-[4-(2-{m-[2-(4-acryloyl-1-piperazinyl)ethyl]phenylamino}-4-pyrimidinyloxy)-3-fluorophenyl]-1-(p-fluorophenyl)-5-(trifluoromethyl)-4-pyrazolecarboxamide] was tested. Which “Fold Selectivity (cMET/RON)” value did it give?
Its value is “+++ (represents a value greater than 3 up to 50)”.

How did the “Fold Selectivity (cMET/RON)” value turn out when `CCCN1CCN(CCc2cccc(Nc3nccc(Oc4ccc(NC(=O)c5cnn(-c6ccc(F)cc6)c5C(F)(F)F)cc4F)n3)c2)CC1` [Compound 47, N-(3-Fluoro-4-((2-((3-(2-(4-Propylpiperazin-1-Yl)Ethyl)Phenyl)Amino)Pyrimidin-4-Yl)Oxy)Phenyl)-1-(4-Fluorophenyl)-5-(Trifluoromethyl)-1H-Pyrazole-4-Carboxamide] was run?
Its value is “+++ (represents a value greater than 3 up to 50)”.

With `CC(C)N1CCN(CCc2cccc(Nc3nccc(Oc4ccc(NC(=O)c5cnn(-c6ccc(F)cc6)c5C(F)(F)F)cc4F)n3)c2)CC1` [Compound 48, N-[3-fluoro-4-(2-{m-[2-(4-isopropyl-1-piperazinyl)ethyl]phenylamino}-4-pyrimidinyloxy)phenyl]-1-(p-fluorophenyl)-5-(trifluoromethyl)-4-pyrazolecarboxamide] as the molecule, how does the “Fold Selectivity (cMET/RON)” value read?
Its value is “++ (represents a value greater than 0.5 up to 3)”.

Which “Fold Selectivity (cMET/RON)” value does the source give for `O=C(Nc1ccc(Oc2ccnc(Nc3cccc(CCN4CCN(C5CC5)CC4)c3)n2)c(F)c1)c1cnn(-c2ccc(F)cc2)c1C(F)(F)F` [Compound 49, N-(4-((2-((3-(2-(4-cyclopropylpiperazin-1-yl)ethyl)phenyl)amino)pyrimidin-4-yl)oxy)-3-fluorophenyl)-1-(4-fluorophenyl)-5-(trifluoromethyl)-1H-pyrazole-4-carboxamide] here?
The value was “++ (represents a value greater than 0.5 up to 3)”.

`C=CC(=O)N1CCN(C(=O)Cc2cccc(Nc3nccc(Oc4ccc(NC(=O)c5cnn(-c6ccc(F)cc6)c5C(F)(F)F)cc4F)n3)c2)CC1` [Compound 50, N-[4-(2-{m-[2-(4-acryloyl-1-piperazinyl)-2-oxoethyl]phenylamino}-4-pyrimidinyloxy)-3-fluorophenyl]-1-(p-fluorophenyl)-5-(trifluoromethyl)-4-pyrazolecarboxamide] was tested. Which “Fold Selectivity (cMET/RON)” value did it give?
The value was “+++ (represents a value greater than 3 up to 50)”.

Which “Fold Selectivity (cMET/RON)” value does the source give for `CP(C)(=O)c1cncnc1Oc1ccc(NC(=O)c2cnn(-c3ccc(F)cc3)c2C(F)(F)F)cc1F` [Compound 54, N-{4-[5-(dimethylphosphoryl)-4-pyrimidinyloxy]-3-fluorophenyl}-1-(p-fluorophenyl)-5-(trifluoromethyl)-4-pyrazolecarboxamide] here?
Its value is “+++ (represents a value greater than 3 up to 50)”.
